Structures can show the parent of a compound that is named as a salt.
Key:
[1] = test system: Methacholine-induced airway reactivity; assay: Mouse model of asthma: methacholine-induced airway reactivity (Penh) in ovalbumin-sensitized and challenged mice; type: in vivo; settings: % inhibition of the PenH vs McH dose AUC compared with vehicle control; for inhibition in vivo at 50 mg/kg: Mus musculus, po, 768 h, 50 mg/kg p.o., dosed days 26-32, measured day 32, ovalbumin-sensitized male Balb/CJ mice, read-out: Reduction of Penh AUC at 50 mg/kg p.o.
Procedure: Male 5-6 week old Balb/CJ mice were obtained from Jackson Laboratories (Bar Harbor, Me.). All experimental animals were used in accordance to Institutional Animal Care and Use Committee of AtheroGenics, Inc. Mice were sensitized by administering an intraperitoneal injection of 20 μg of ovalbumin (Calbiochem, La Jolla, Calif.) adsorbed in 2 mg of alum (Imject Alum; Pierce, Rockford, Ill.) on day 0 and 14. A group of mice received saline and served as negative control animals. The mice were challenged by aerosol exposure to ovalbumin (1% [wt/vol]) for 25 minutes on 3 consecutive days (days 28, 29, and 30) in a plexiglass exposure chamber coupled to an Aeroneb nebulizer (Buxco Electronics, Wilmington, N.C.). Experimental compounds were dissolved in Glycofurol/PEG 300/Tween (35%/55%/10%) (Sigma-Aldrich; Milwaukee, Wis.). Animals were dosed orally with either test compound or vehicle (6 ml/kg dosing volume) on days 26-32 of study. Compound or vehicle was administered 2 hour before the aerosol challenge on days 28, 29, and 30 and 1 hour before airway reactivity measurement on day 32.
Methacholine-induced airway reactivity was assessed on day 32. Methacholine was administered in increasing concentrations ([…], 1.5, 3, 6, 12, 25, and 50 mg/ml) to unrestrained mice. Increases in airway resistance to Methacholine were determined as enhanced pause, (Penh) values, during and after the exposure (6-minute total analysis time). Mice were then humanely euthanized with an overdose of ketamine/xylazine and plasma samples collected for determination of drug levels. The data is presented as the % inhibition of the PenH vs McH dose AUC compared with the vehicle control.
Data analysis was conducting using the software package, JMP (SAS Institute Inc; Cary, N.C.). The Dunnett's multiple comparison test was used to compare treatment group means to the vehicle control group. P values of less than 0.05 were considered statistically significant. The data (Table 1) is presented as the % inhibition of the PenH vs McH dose AUC compared with the vehicle control.

With `Cn1c(C(=O)O)ccc1S(=O)(=O)N1CCC(CCO)(Sc2cc(C(C)(C)C)c(O)c(C(C)(C)C)c2)CC1` [Example 1, 5-[4-(3,5-Di-tert-butyl-4-hydroxy-phenylsulfanyl)-4-(2-hydroxy-ethyl)-piperidine-1-sulfonyl]-1-methyl-1H-pyrrole-2-carboxylic acid] the inhibition in vivo at 50 mg/kg [1] was less than 20%.
In the case of `Cn1c(CO)ccc1S(=O)(=O)N1CCC(CCO)(Sc2cc(C(C)(C)C)c(O)c(C(C)(C)C)c2)CC1` [Example 2, 2,6-Di-tert-butyl-4-[4-(2-hydroxy-ethyl)-1-(5-hydroxymethyl-1-methyl-1H-pyrrole-2-sulfonyl)-piperidin-4-ylsulfanyl]-phenol], the melting point is reported as 126 to 127 °C and the inhibition in vivo at 50 mg/kg [1] is reported as greater than 40%.
In the case of `Cc1[nH]c(C(=O)O)c(C)c1S(=O)(=O)N1CCC(Sc2cc(C(C)(C)C)c(O)c(C(C)(C)C)c2)CC1` [Example 3, 4-[4-(3,5-Di-tert-butyl-4-hydroxy-phenylsulfanyl)-piperidine-1-sulfonyl]-3,5-dimethyl-1H-pyrrole-2-carboxylic acid], the inhibition in vivo at 50 mg/kg [1] is reported as 20 to 40%.
Work on `Cn1c(C(=O)O)ccc1S(=O)(=O)N1CCC(Sc2cc(C(C)(C)C)c(O)c(C(C)(C)C)c2)CC1` [Example 4, 5-[4-(3,5-Di-tert-butyl-4-hydroxy-phenylsulfanyl)-piperidine-1-sulfonyl]-1-methyl-1H-pyrrole-2-carboxylic acid] yielded an inhibition in vivo at 50 mg/kg [1] greater than 40%.
Compound `Cn1c(CO)ccc1S(=O)(=O)N1CCC(Sc2cc(C(C)(C)C)c(O)c(C(C)(C)C)c2)CC1` [Example 5, 2,6-Di-tert-butyl-4-[1-(5-hydroxymethyl-1-methyl-1H-pyrrole-2-sulfonyl)-piperidin-4-ylsulfanyl]-phenol] has a melting point of 64 to 65 °C and an inhibition in vivo at 50 mg/kg [1] greater than 40%.
With `Cn1c(C(=O)O)ccc1S(=O)(=O)N1CCC(Sc2cc(C(C)(C)C)c(OCCCO)c(C(C)(C)C)c2)CC1` [Example 6, 5-{4-[3,5-Di-tert-butyl-4-(3-hydroxy-propoxy)-phenylsulfanyl]-piperidine-1-sulfonyl}-1-methyl-1H-pyrrole-2-carboxylic acid] the inhibition in vivo at 50 mg/kg [1] was less than 20%.
`Cn1c(C(=O)O)ccc1S(=O)(=O)N1CCC([S+]([O-])c2cc(C(C)(C)C)c(O)c(C(C)(C)C)c2)CC1` (stereo not shown) [Example 7, 5-[4-(3,5-Di-tert-butyl-4-hydroxy-benzenesulfinyl)-piperidine-1-sulfonyl]-1-methyl-1H-pyrrole-2-carboxylic acid] gave an inhibition in vivo at 50 mg/kg [1] of 20 to 40%.
With `CC(C)(C)c1cc(SC2CCN(S(=O)(=O)c3ncc(C(=O)O)[nH]3)CC2)cc(C(C)(C)C)c1O` [Example 8, 2-[4-(3,5-Di-tert-butyl-4-hydroxy-phenylsulfanyl)-piperidine-1-sulfonyl]-3H-imidazole-4-carboxylic acid] the inhibition in vivo at 50 mg/kg [1] was 20 to 40%.
`CC(C)(C)c1cc(SC2CCN(S(=O)(=O)c3ncc(CO)[nH]3)CC2)cc(C(C)(C)C)c1O` [Example 9, 2,6-Di-tert-butyl-4-[1-(5-hydroxymethyl-1H-imidazole-2-sulfonyl)-piperidin-4-ylsulfanyl]-phenol] showed a melting point of 122 to 123 °C and an inhibition in vivo at 50 mg/kg [1] of 20 to 40%.
Work on `CC(C)(C)c1cc(SC2CCN(S(=O)(=O)c3ncc(C(C)(C)O)[nH]3)CC2)cc(C(C)(C)C)c1O` [Example 12, 2,6-Di-tert-butyl-4-{1-[5-(1-hydroxy-1-methyl-ethyl)-1H-imidazole-2-sulfonyl]-piperidin-4-ylsulfanyl}-phenol] yielded an inhibition in vivo at 50 mg/kg [1] of less than 20%.
In the case of `Cn1c(C(=O)O)ccc1S(=O)(=O)N1CC[C@@H](Sc2cc(C(C)(C)C)c(O)c(C(C)(C)C)c2)C1` [Example 13, (R)-5-[3-(3,5-Di-tert-butyl-4-hydroxy-phenylsulfanyl)-pyrrolidine-1-sulfonyl]-1-methyl-1H-pyrrole-2-carboxylic acid], the inhibition in vivo at 50 mg/kg [1] is reported as less than 20%.
With `Cn1c(C(=O)O)ccc1S(=O)(=O)N1CC[C@H](Sc2cc(C(C)(C)C)c(O)c(C(C)(C)C)c2)C1` [Example 14, (S)-5-[3-(3,5-Di-tert-butyl-4-hydroxy-phenylsulfanyl)-pyrrolidine-1-sulfonyl]-1-methyl-1H-pyrrole-2-carboxylic acid] the inhibition in vivo at 50 mg/kg [1] was less than 20%.
In the case of `Cn1c(CO)ccc1S(=O)(=O)N1CC[C@H](Sc2cc(C(C)(C)C)c(O)c(C(C)(C)C)c2)C1` [Example 15, (S)-2,6-Di-tert-butyl-4-[1-(5-hydroxymethyl-1-methyl-1H-pyrrole-2-sulfonyl)-pyrrolidin-3-ylsulfanyl]-phenol], the melting point is reported as 68 to 70 °C and the inhibition in vivo at 50 mg/kg [1] is reported as less than 20%.
For `Cn1c(C(=O)O)ccc1S(=O)(=O)N1CCC(Sc2cc(C(C)(C)C)c(O)c(C(C)(C)C)c2)CC1` [Example 16, 5-[4-(3,5-Di-tert-butyl-4-hydroxy-phenylsulfanyl)-piperidine-1-sulfonyl]-1-methyl-1H-pyrrole-2-carboxylic acid L-arginine salt], the inhibition in vivo at 50 mg/kg [1] was less than 20%.
For `Cn1c(C(=O)O)ccc1S(=O)(=O)N1CCC(Sc2cc(C(C)(C)C)c(O)c(C(C)(C)C)c2)CC1` [Example 18, 5-[4-(3,5-Di-tert-butyl-4-hydroxy-phenylsulfanyl)-piperidine-1-sulfonyl]-1-methyl-1H-pyrrole-2-carboxylic acid tris(hydroxymethyl)aminomethane (THAM) Salt], the “Reduction of Penh AUC at 50 mg/kg p.o.” value ([1]; dosed days 26-32, measured day 32, ovalbumin-sensitized male Balb/CJ mice, 50 mg/kg) was 1 (>40% and statistically significant).
